From patent US20190212344A1, “BIOMARKERS FOR USE IN DETERMINING RESPONSE TO TREATMENT OF NEURODEGENERATION DISEASE” (The Board of Trustees of the Leland Stanford Junior …, priority 2016, published 2019)
Residues, ends and D or L forms follow the SMILES beside them.

System: R6/2 mice
Test: Survival of R6/2 and WT mice during P110 treatment
Assay type: in vivo, mouse
Details: 10 P110-treated WT mice, intermittent treatment over 8 weeks
Description: All the experiments were in accordance with protocols approved by the Institutional Animal Care and Use Committee of Stanford University and were performed based on the National Institutes of Health Guide for the Care and Use of Laboratory Animals. Hemizygous R6/2 HD mice and their wild-type littermates (WT) were purchased from Jackson Laboratories and shipped to us at 5 weeks of age. The animals used in the P110 treatment study were implanted with a 28-day osmotic pump (Alzet, Cupertino Calif.) containing TAT47-57 carrier control peptide or P110-TAT47-57 (P110 peptide), which delivered to the mice at a rate of 3 mg/Kg/day, as described before. The first pump was implanted at 5 weeks of age and replaced once, after 4 weeks. For the intermittent treatment study, TAT or P110 were delivered as above, using a 1-week pump. After 3 weeks with no treatment, a new pump was implanted for another week of treatment, and mice were sacrificed three weeks later, at the age of 13 weeks.
The overall survival during the study period was recorded and the remaining mice were sacrificed when they reached 13 weeks. […]
The results are presented as mean±SE. Statistical analysis was assessed by unpaired Student's t test and 1-way ANOVA using GraphPad Prism (GraphPad Software, Inc, La Jolla, Calif.). […]

CC(C)C[C@H](NC(=O)[C@H](CC(=O)O)NC(=O)CNC(=O)CNC(=O)[C@H](CCCNC(=N)N)NC(=O)[C@H](CCCNC(=N)N)NC(=O)[C@H](CCCNC(=N)N)NC(=O)[C@H](CCC(N)=O)NC(=O)[C@H](CCCNC(=N)N)NC(=O)[C@H](CCCNC(=N)N)NC(=O)[C@H](CCCCN)NC(=O)[C@H](CCCCN)NC(=O)[C@H](CCCNC(=N)N)NC(=O)CNC(=O)[C@@H](N)Cc1ccc(O)cc1)C(=O)N[C@@H](CC(C)C)C(=O)N1CCC[C@H]1C(=O)N[C@@H](CCCNC(=N)N)C(=O)NCC(=O)N[C@@H](CO)C(=O)O [P110] (H-YGRKKRRQRRRGGDLLPRGS-OH)
death in WT mice: no death
